The values that follow come from patent publication US20160052936A1, “SPIROINDOLINE DERIVATIVES FOR USE AS GONADOTROPIN-RELEASING HORMONE RECEPTOR ANTAGONISTS” (BAYER PHARMA AKTIENGESELLSCHAFT, priority 2013, published 2016).

Structures are written as SMILES.

This test deals with T1, human GnRH receptor (Homo sapiens, UniProt P30968).
T1 construct: host or cells: CHO cells stably expressing human GnRH receptor (line established by Prof. Thomas Gudermann)
T1 sequence (P30968 1-328): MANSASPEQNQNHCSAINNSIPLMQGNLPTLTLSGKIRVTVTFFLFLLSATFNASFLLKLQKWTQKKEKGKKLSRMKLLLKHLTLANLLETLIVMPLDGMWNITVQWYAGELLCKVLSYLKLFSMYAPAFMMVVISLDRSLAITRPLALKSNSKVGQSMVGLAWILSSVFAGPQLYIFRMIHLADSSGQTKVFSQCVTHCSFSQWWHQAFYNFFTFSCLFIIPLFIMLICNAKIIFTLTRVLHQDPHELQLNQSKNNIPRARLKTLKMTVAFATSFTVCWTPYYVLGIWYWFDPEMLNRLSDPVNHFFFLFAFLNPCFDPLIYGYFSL
In words: IP-One HTRF assay with buserelin stimulation. It is filed as cell-based. The following applies: CHO cells stably expressing human GnRH receptor; buserelin at EC80; read-out: Potency in IP-One HTRF assay with buserelin (at EC80) stimulation, given as IC50. The text has this: By using homogenous time-resolved fluorescence resonance energy transfer (HTRF), the generation of one component of the GnRH-R signalling cascade can be measured. After stimulation of CHO cells stably expressing human GnRH receptor (established by Prof. Thomas Gudermann, currently University of Marburg, Germany; supplied as frozen cell aliquots by Cell Culture Services, Hamburg, Germany) with the EC80 of the GnRH agonist buserelin, Gq protein-coupled receptor signalling cascade is activated resulting in PLC-dependent cleavage of PIP2 to Inositol-1,4,5-triphosphate (IP3) and Diacylglycerol. The second messenger IP3 is degraded intracellularly to myo-inositol. Inhibition of the final degradation step from Inositol-1-phosphate (IP1) to myo-inositol by addition of lithium chloride leads to accumulation of IP1 in the cells. In cell lysates, IP1 can be detected via an antibody-based HTRF detection technology, where IP1 can displace the FRET acceptor IP1-d2 from binding by Terbium-labelled anti-IP1 antibody as donor resulting in a signal decrease. Compounds were tested for their capability of inhibiting GnRH-R activation by buserelin. For all IP-One HTRF® assays reagents of Cisbio Bioassays (IP-One Tb Jumbo kit, #62IPAPEJ; Cisbio Bioassays, Bagnols sur Cèze Cedex, France) were used.
For the assay, frozen cell aliquots were thawed and a cell suspension (3.33×10^6 cells/mL) containing IP1-d2 (dilution 1:40) was prepared and incubated at 37° C. After 1 h 3 μl of the cell suspension were added to 50 nl of a 100-fold concentrated solution of the test compound in DMSO pre-dispensed in a well of a white low-volume 384-well microtiter plate (Greiner Bio-One, Frickenhausen, Germany). […] Plates were incubated for 1 h at 37° C. and 5% carbon dioxide before the cells were lysed by adding 3 μl Terbium-labelled anti-IP1 antibody (1:40) diluted in Conjugate & Lysis buffer as supplied with the kit. After an incubation for 1 h at 22° C. to enable complete cell lysis and antibody binding to free IP1 or IP1-d2, plates were measured in an HTRF reader, e.g. a RUBYstar, PHERAstar (both BMG Labtechnologies, Offenburg, Germany) or a Viewlux (PerkinElmer LAS, Rodgau-Jügesheim, Germany).
From the fluorescence emissions at 665 nm (FRET) and at 620 nm (background signal of Terbium-antibody), the ratio (emission at 665 nm divided by emission at 620 nm) was calculated and the data were normalized (reaction without test compound=0% inhibition; all other assay components except agonist=100% inhibition). On the same microtiter plate, compounds were tested at 10 different concentrations in the range of 20 μM to 1 nM (20 μM, 6.7 μM, 2.2 μM, 0.74 μM, 0.25 μM, 82 nM, 27 nM, 9.2 nM, 3.1 nM and 1 nM; dilution series prepared before the assay at the level of the 100-fold conc. stock solutions by serial 1:3 dilutions in 100% DMSO) in duplicate values for each concentration. By using an in-house software, the IC50 values were calculated by a 4 parameter fit.
Within the meaning of the present invention the antagonist activity is reflected by the ability of a compound of the invention to antagonize human GnRH receptor stimulation in IP-One HTRF® assay at least three times the standard deviation over the background level.
Background: In TR-FRET formats the signal depends on donor and acceptor labels being close together.
For orientation: IC50 means the concentration at which inhibition is half-maximal. As for `NC(=O)c1ccc(S(=O)(=O)N2c3ccc(C(=O)NCc4ncc(C(F)(F)F)cc4Cl)cc3C3(CCS(=O)(=O)CC3)C2C2CC2)cc1` (racemic) [Example 17, 1-[(4-carbamoylphenyl)sulfonyl]-N-{[3-chloro-5-(trifluoromethyl)pyridin-2-yl]methyl}-2-cyclopropyl-1,2,2′,3′,5′,6′-hexahydrospiro[indole-3,4′-thiopyran]-5-carboxamide 1′,1′-dioxide], the IC50 stood at 260 nM. Consider `O=C(NCc1ncc(C(F)(F)F)cc1F)c1ccc2c(c1)C1(CCS(=O)(=O)CC1)C(C1CC1)N2S(=O)(=O)c1ccc(F)cc1` (racemic) [Example 1, 2-cyclopropyl-1-[(4-fluorophenyl)sulfonyl]-N-{[3-fluoro-5-(trifluoromethyl)pyridin-2-yl]methyl}-1,2,2′,3′,5′,6′-hexahydrospiro[indole-3,4′-thiopyran]-5-carboxamide 1′,1′-dioxide], for which the IC50 is 420 nM.

On to `O=C(NCc1ncc(C(F)(F)F)cc1Cl)c1ccc2c(c1)C1(CCS(=O)(=O)CC1)C(C1CC1)N2S(=O)(=O)c1cccc(OC(F)(F)F)c1` (racemic) [Example 12, N-{[3-chloro-5-(trifluoromethyl)pyridin-2-yl]methyl}-2-cyclopropyl-1-{[3-(trifluoromethoxy)phenyl]sulfonyl}-1,2,2′,3′,5′,6′-hexahydrospiro[indole-3,4′-thiopyran]-5-carboxamide 1′,1′-dioxide], for which the half-maximal inhibitory concentration (IC50) is 219 nM.

`N#Cc1ccc(S(=O)(=O)N2c3ccc(C(=O)NCc4ncc(C(F)(F)F)cc4F)cc3C3(CCS(=O)(=O)CC3)C2C2CC2)cc1` (single isomer, unassigned) [Example 7.2]: the half-maximal inhibitory concentration (IC50) worked out at 57 nM. With `O=C(NCc1ncc(C(F)(F)F)cc1F)c1ccc2c(c1)C1(CCS(=O)(=O)CC1)C(C1CC1)N2S(=O)(=O)c1ccc(Cl)cc1` (single isomer, unassigned) [Example 18.1], the IC50 amounted to 31 nM. Consider `O=C(NCc1ncc(C(F)(F)F)cc1Cl)c1ccc2c(c1)C1(CCS(=O)(=O)CC1)C(C1CC1)N2S(=O)(=O)c1ccc(OC(F)F)cc1` (single isomer, unassigned) [Example 16.2], for which the half-maximal inhibitory concentration (IC50) worked out at 879 nM. The same measure for `O=C(NCc1ncc(C(F)(F)F)cc1Cl)c1ccc2c(c1)C1(CCS(=O)(=O)CC1)C(C1CC1)N2S(=O)(=O)c1ccc(OC(F)F)cc1` (racemic) [Example 16, N-{[3-chloro-5-(trifluoromethyl)pyridin-2-yl]methyl}-2-cyclopropyl-1-{[4-(difluoromethoxy)phenyl]sulfonyl}-1,2,2′,3′,5′,6′-hexahydrospiro[indole-3,4′-thiopyran]-5-carboxamide 1′,1′-dioxide]: 37 nM; for `O=C(NCc1ncc(C(F)(F)F)cc1F)c1ccc2c(c1)C1(CCS(=O)(=O)CC1)[C@@H](C1CC1)N2S(=O)(=O)c1ccc(F)cc1` (single isomer, unassigned) [Example 1.2]: 6990 nM.

Regarding `O=C(NCc1ncc(C(F)(F)F)cc1Cl)c1ccc2c(c1)C1(CC[S+]([O-])CC1)C(C1CC1)N2S(=O)(=O)c1ccc(F)cc1` (mixture of isomers) [Example 2, N-{[3-chloro-5-(trifluoromethyl)pyridin-2-yl]methyl}-2-cyclopropyl-1-[(4-fluorophenyl)sulfonyl]-1,2,2′,3′,5′,6′-hexahydrospiro[indole-3,4′-thiopyran]-5-carboxamide 1′-oxide], the IC50 stood at 27 nM. As to `N#Cc1ccc(S(=O)(=O)N2c3ccc(C(=O)NCc4ncc(C(F)(F)F)cc4F)cc3C3(CCS(=O)(=O)CC3)C2C2CC2)cc1` (racemic) [Example 7, 1-[(4-cyanophenyl)sulfonyl]-2-cyclopropyl-N-{[3-fluoro-5-(trifluoromethyl)pyridin-2-yl]methyl}-1,2,2′,3′,5′,6′-hexahydrospiro[indole-3,4′-thiopyran]-5-carboxamide 1′,1′-dioxide], the IC50 was found to be 69 nM.
